Test results as given in ChEMBL document CHEMBL1149166, “Antimycobacterial agents. 1. Thio analogues of purine” (J Med Chem, 2004).
≈ marks a conversion by molar mass, not a printed value.

Assays:
[1] = tested on: Mycobacterium tuberculosis; assay: Inhibitory activity against growth of Mycobacterium tuberculosis (Mtb) H37Ra Strain; assay type: functional
[2] = tested on: Mycobacterium tuberculosis; assay: Inhibitory activity against growth of Mycobacterium tuberculosis H37Rv Strain; assay type: functional
[3] = tested on: Mycobacterium tuberculosis; assay: Percent inhibitory activity against Mycobacterium tuberculosis H37Rv Strain at 6.25 ug/mL; assay type: functional
[4] = tested on: Mycobacterium tuberculosis; assay: Concentration effecting […] reduction in the viable cell counts of mouse bone marrow macrophage monolayers containing Mtb Erdman after 7 days compared to controls; assay type: functional, organism-based; conditions: 168 h
[5] = tested on: Mycobacterium tuberculosis; assay: Inhibitory activity against growth of Mycobacterium tuberculosis (Mtb) H37Ra Strain; Activity showed partial growth inhibition representing an estimated 50% or more; assay type: functional
[6] = tested on: Mycobacterium tuberculosis; assay: Lowest concentration of compound against Mtb H37Ra strain required to inhibit the growth completely; assay type: functional
[7] = tested on: Mycobacterium tuberculosis; assay: Percent inhibitory activity against Mycobacterium tuberculosis (Mtb) H37Rv Strain at 12.25 ug/mL; assay type: functional
[8] = Selective index is […]; assay type: functional
[9] = tested on: Mycobacterium tuberculosis; assay: Lowest concentration of compound against Mtb H37Ra strain required to inhibit the growth completely; activity range is 2-4; assay type: functional

Compound	MIC [1]	MIC90 [2]	inhibition at 6.25 µg/mL [3]	further results
CCCCCCCCCCCSc1[nH]cnc2ncnc1-2	> 12.8 µg/mL	3.13 µg/mL (≈ 10.2 µM)	98%	EC50 [4]: 2.54 µg/mL (≈ 8.29 µM)
Oc1nc(SCc2ccc(F)cc2)c2[nH]cnc2n1	–	> 6.25 µg/mL	52%	MIC [5]: > 12.8 µg/mL
CCOC(=O)Cn1cnc2c(SCc3ccccc3F)nc(O)nc21	–	> 6.25 µg/mL	22%	MIC [6]: 4 µg/mL (≈ 11 µM)
c1ccc2nc(Sc3[nH]cnc4ncnc3-4)ccc2c1	> 12.8 µg/mL	> 12.5 µg/mL	–	inhibition at 12.25 µg/mL [7]: 69%
Cc1cccc(Sc2[nH]cnc3ncnc2-3)c1	> 12.8 µg/mL	> 12.5 µg/mL	–	inhibition at 12.25 µg/mL [7]: 99%
Clc1nc(Sc2ncccn2)c2[nH]cnc2n1	> 12.8 µg/mL	> 6.25 µg/mL	53%	–
Oc1nc(SCc2ccc(Cl)cc2)c2[nH]cnc2n1	–	> 6.25 µg/mL	55%	MIC [5]: > 12.8 µg/mL
CCOC(=O)Cn1cnc2c(Sc3ccc(C)cc3)ncnc21	> 12.8 µg/mL	> 6.25 µg/mL	99%	–
CCOC(=O)Cn1cnc2c(Sc3ccc4ccccc4c3)ncnc21	–	> 6.25 µg/mL	100%	MIC [5]: > 12.8 µg/mL
CCOC(=O)Cn1cnc2c(SCc3cccc([N+](=O)[O-])c3C)nc(O)nc21	16 µg/mL (≈ 39.7 µM)	> 6.25 µg/mL	0%	–
CCOC(=O)Cn1cnc2c(Sc3ccc(Cl)cc3)ncnc21	32 µg/mL (≈ 91.7 µM)	> 6.25 µg/mL	99%	–
CCOC(=O)Cn1cnc2c(Sc3cccc(C)c3)ncnc21	–	> 6.25 µg/mL	0%	MIC [5]: > 12.8 µg/mL
c1ccc2cc(Sc3[nH]cnc4ncnc3-4)ccc2c1	–	> 12.5 µg/mL	–	MIC [5]: > 12.8 µg/mL; inhibition at 12.25 µg/mL [7]: 69%
O=[N+]([O-])c1ccccc1CSc1nc(O)nc2nc[nH]c12	> 16 µg/mL	> 6.25 µg/mL	61%	–
CCOC(=O)Cn1cnc2c(SCc3ccccc3)nc(O)nc21	–	> 6.25 µg/mL	25%	MIC [6]: 4 µg/mL (≈ 11.6 µM)
CCCCCCCCCCSc1ncnc2c1ncn2CC(N)=O	32 µg/mL (≈ 91.6 µM)	> 6.25 µg/mL	0%	–
Clc1ccc(Sc2[nH]cnc3ncnc2-3)cc1	> 12.8 µg/mL	> 12.5 µg/mL	–	inhibition at 12.25 µg/mL [7]: 78%

Compound	MIC [1]	MIC90 [2]	inhibition at 6.25 µg/mL [3]	further results
c1ccc(CSc2ncnc3[nH]cnc23)cc1	> 12.8 µg/mL	> 12.5 µg/mL	–	inhibition at 12.25 µg/mL [7]: 52%
Oc1nc(SCc2ccccc2F)c2[nH]cnc2n1	–	> 6.25 µg/mL	50%	MIC [6]: > 8 µg/mL
CCCCCCCCCCSc1ncnc2c1ncn2CC(=O)Oc1ccccc1	> 12.8 µg/mL	> 6.25 µg/mL	0%	–
Oc1nc(SCc2ccc(F)cc2C(F)(F)F)c2[nH]cnc2n1	> 16 µg/mL	–	50%	–
Clc1nc(Sc2cccc3ccccc23)c2[nH]cnc2n1	> 12.8 µg/mL	> 6.25 µg/mL	56%	–
CCCCCCCCCCSc1[nH]c(Cl)nc2ncnc1-2	> 12.8 µg/mL	> 6.25 µg/mL	86%	–
Oc1nc(SCc2ccccc2Cl)c2[nH]cnc2n1	> 16 µg/mL	> 6.25 µg/mL	62%	–
COc1cccc(CSc2[nH]c(O)nc3ncnc2-3)c1	> 16 µg/mL	> 6.25 µg/mL	59%	–
Cc1ccccc1Sc1[nH]c(Cl)nc2ncnc1-2	> 12.8 µg/mL	> 6.25 µg/mL	72%	–
Oc1nc(SCc2ccccc2)c2[nH]cnc2n1	> 12.8 µg/mL	> 6.25 µg/mL	94%	–
CCCCCCCCCCSc1ncnc2c1ncn2CC(=O)OC(C)(C)C	16 µg/mL (≈ 39.4 µM)	3.13 µg/mL (≈ 7.7 µM)	99%	SI [8]: > 3.19
CCCCCCCCCCSc1ncnc2c1ncn2CC(=O)OCC	–	1.56 µg/mL (≈ 4.12 µM)	100%	MIC [5]: > 12.8 µg/mL; SI [8]: > 40
CCCCCCCCCCCCSc1ncnc2c1ncn2CC(=O)OCC	–	0.78 µg/mL (≈ 1.92 µM)	98%	MIC [6]: 8 µg/mL (≈ 19.7 µM); SI [8]: > 12.8
CC[C@@H](CO)NCCN[C@@H](CC)CO [ETHAMBUTOL]	–	–	–	MIC [9]: 4 µg/mL (≈ 19.6 µM)
CCCCCCCCCCSc1ncnc2c1ncn2CC(=O)OCc1ccccc1	> 12.8 µg/mL	> 6.25 µg/mL	0%	–
CCOC(=O)Cn1cnc2c(SCc3cc(Cl)ccc3F)nc(O)nc21	–	> 6.25 µg/mL	17%	MIC [6]: 4 µg/mL (≈ 10.1 µM)
Cc1ccc(Sc2[nH]cnc3ncnc2-3)cc1	> 12.8 µg/mL	> 12.5 µg/mL	–	inhibition at 12.25 µg/mL [7]: 65%
